Data from publication PMC12295124, “Quercetin, Catechin, and Diosmin as Modulators of Haloperidol–HSA Interactions: A Biophysical and Computational Study” (International Journal of Molecular Sciences, 2025).

Target: T1, human serum albumin (Homo sapiens, UniProt P02768)
T1 construct: gene ALB
Test: intrinsic Trp fluorescence quenching (excitation […] nm, […] K), double-log plot; Kb is an association constant
Format: binding
Conditions: read-out: Kb/dm^3 mol^-1 (converted)

T1 sequence (P02768 25-609): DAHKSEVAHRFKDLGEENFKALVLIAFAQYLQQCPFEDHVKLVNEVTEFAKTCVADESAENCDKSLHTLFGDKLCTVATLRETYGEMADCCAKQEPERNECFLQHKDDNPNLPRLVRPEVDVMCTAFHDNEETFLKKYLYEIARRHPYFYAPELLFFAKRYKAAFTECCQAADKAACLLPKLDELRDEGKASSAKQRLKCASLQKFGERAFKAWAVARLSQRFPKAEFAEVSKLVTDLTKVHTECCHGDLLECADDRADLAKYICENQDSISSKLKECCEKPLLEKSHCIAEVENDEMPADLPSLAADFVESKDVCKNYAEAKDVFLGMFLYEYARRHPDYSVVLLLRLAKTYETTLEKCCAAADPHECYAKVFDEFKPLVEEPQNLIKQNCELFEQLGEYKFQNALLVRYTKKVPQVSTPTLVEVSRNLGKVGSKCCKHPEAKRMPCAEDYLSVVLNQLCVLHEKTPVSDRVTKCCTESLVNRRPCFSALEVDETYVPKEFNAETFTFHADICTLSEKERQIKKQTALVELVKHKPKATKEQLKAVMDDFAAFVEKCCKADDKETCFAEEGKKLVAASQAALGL

Kd: 225 µM
Compound: O=C(CCCN1CCC(O)(c2ccc(Cl)cc2)CC1)c1ccc(F)cc1 [HPD, haloperidol]
